Data: patent publication US20140073700A1, “[…] ACID DERIVATIVES AND METHODS OF USE THEREOF” (AbbVie Inc., priority 2012, published 2014)

System: IFNγ-Induced NO Production in RAW 264.7 cells
Test: Nitric Oxide Suppression Assay (suppression of IFNγ-induced NO production)
Format: cell-based
Conditions: RAW264.7; RAW 264.7 mouse macrophage cells, 20 ng/mL interferon gamma, Griess detection; single curve fit to mean data of n=2-3
Description: RAW 264.7, a mouse macrophage cell line, was obtained from American Type Culture Collection (Manassas Va.) and maintained in the log phase of growth in Dulbecco's Modified Eagle's Medium (DMEM), 10% heat inactivated fetal calf serum and 100 units/mL antibiotic-antimycotic (AA). Cells were cultured and maintained in a humidified incubator at 37° C. under 5% CO2 and 95% air. Cells were sub-cultured every 3 days by scraping and were not used beyond passage 20. All cell culture supplies were obtained from Life Technologies (Grand Island, N.Y.).
RAW 264.7 cells were plated 1 day in advance of experiment at a concentration of 80,000 cells/well onto CellBIND® 96 well plates (Corning, N.Y.) in a total volume of 100 μL. The next day, pre-treat cells with compounds (from 3 μM to 0.3 nM serially diluted in a 10 point curve) from a 10× stock by adding 10 μL per well in complete DMEM media containing 10% fetal calf serum. The plates were centrifuged for 3 minutes at 400×g at room temperature followed by 2 hour incubation at 37° C. The cells were then incubated overnight at 37° C. with 10 μL of the insult, interferon gamma (R&D Systems, Minneapolis, Minn.), from a 10× stock for a final concentration of 20 ng/mL. The plates were centrifuged for 3 minutes at 400×g at room temperature followed by 18 hour incubation at 37° C. The following day, transfer 50 μL cell culture supernatant from each well into a clear bottom 96 well plate and follow the instructions from Promega's Griess Detection Kit #G2930 (Madison, Wis.) which involves the addition of 50 μL of the provided sulfanilamide solution for a 5-10 minute incubation at room temperature. Next add 50 μL of the provided N-1-napthylethylenediamine dihydrochloride (NED) solution for a 5-10 minute incubation at room temperature and protected from light. If any air bubbles were introduced into the well, the plates need to be centrifuged for 5 minutes at 400×g at room temperature to avoid interference with absorbance readings. The plates were read for absorbance within 30 minutes with a filter between 520 nm and 550 nm.
For the ability of compounds to suppress the increase in nitric oxide release, the percent maximal intensity of nitric oxide detected in each well was normalized to that induced by the peak value for 20 ng/mL of interferon gamma alone and plotted against the compound concentration to calculate IC50 values and to control for plate-to-plate variability. Concentration-response data were analyzed using GraphPad Prism (San Diego, Calif.); the IC50 values were derived from a single curve fit to the mean data of n=2-3, in duplicates.
All compounds were dissolved in dimethyl sulfoxide at 10 mM stock solutions and tested at a concentration that the dimethyl sulfoxide levels never exceeded 1%.

| SMILES | IC50 |
| --- | --- |
| COCCNC(=O)[C@@]1(C)CC[C@]2(C)CC[C@]3(C)[C@H](C(=O)C=C4[C@@]5(C)C=C(C#N)C(=O)C(C)(C)[C@@H]5CC[C@]43C)[C@@H]2C1 [Example 34, (2S,4aS,6aR,6bS,8aR,12aS,14aR,14bS)-11-cyano-N-(2-methoxyethyl)-2,4a,6a,6b,9,9,12a-heptamethyl-10,14-dioxo-1,2,3,4,4a,5,6,6a,6b,7,8,8a,9,10,12a,14,14a,14b-octadecahydropicene-2-carboxamide] | 3 nM |
| CC1(C)C(=O)C(C#N)=C[C@]2(C)C3=CC(=O)[C@]4(O)[C@@H]5C[C@@](C)(C(=O)NCc6ccccc6)CC[C@]5(C)CC[C@@]4(C)[C@]3(C)CC[C@@H]12 [Example 22, (2S,4aS,6aS,6bR,8aR,12aS,14aS,14bR)—N-benzyl-11-cyano-14a-hydroxy-2,4a,6a,6b,9,9,12a-heptamethyl-10,14-dioxo-1,2,3,4,4a,5,6,6a,6b,7,8,8a,9,10,12a,14,14a,14b-octadecahydropicene-2-carboxamide] | 27.1 nM |
| CC1(C)C(=O)C(C#N)=C[C@]2(C)C3=CC(=O)[C@]4(O)[C@@H]5C[C@@](C)(C(=O)NCc6ccco6)CC[C@]5(C)CC[C@@]4(C)[C@]3(C)CC[C@@H]12 [Example 26, (2S,4aS,6aS,6bR,8aR,12aS,14aS,14bR)-11-cyano-N-(2-furylmethyl)-14a-hydroxy-2,4a,6a,6b,9,9,12a-heptamethyl-10,14-dioxo-1,2,3,4,4a,5,6,6a,6b,7,8,8a,9,10,12a,14,14a,14b-octadecahydropicene-2-carboxamide] | 10.2 nM |
| COC(=O)[C@]12CCC(C)(C)C[C@H]1[C@H]1C(=O)C=C3[C@@]4(C)C=C(C#N)C(=O)C(C)(C)[C@@H]4CC[C@@]3(C)[C@]1(C)CC2 [bardoxolone methyl, reference compound] | 29 nM |
| CC1(C)C(=O)C(C#N)=C[C@]2(C)C3=CC(=O)[C@]4(O)[C@@H]5C[C@@](C)(C(=O)N6CCCC6)CC[C@]5(C)CC[C@@]4(C)[C@]3(C)CC[C@@H]12 [Example 31, (4aR,6aR,6bS,8aS,11S,12aR,12bS,14bS)-12b-hydroxy-4,4,6a,6b,8a,11,14b-heptamethyl-3,13-dioxo-11-(pyrrolidin-1-ylcarbonyl)-3,4,4a,5,6,6a,6b,7,8,8a,9,10,11,12,12a,12b,13,14b-octadecahydropicene-2-carbonitrile] | 19.3 nM |
| COC(=O)[C@@]1(C)CC[C@]2(C)CC[C@@]3(C)[C@]4(C)CC[C@H]5C(C)(C)C(=O)C(C#N)=C[C@]5(C)C4=CC(=O)[C@]3(O)[C@@H]2C1 [Example 1, (2S,4aS,6aS,6bR,8aR,12aS,14aS,14bR)-methyl 11-cyano-14a-hydroxy-2,4a,6a,6b,9,9,12a-heptamethyl-10,14-dioxo-1,2,3,4,4a,5,6,6a,6b,7,8,8a,9,10,12a,14,14a,14b-octadecahydropicene-2-carboxylate] | 16.1 nM |
| COC(=O)[C@@H]1CCCN1C(=O)[C@@]1(C)CC[C@]2(C)CC[C@@]3(C)[C@]4(C)CC[C@H]5C(C)(C)C(=O)C(C#N)=C[C@]5(C)C4=CC(=O)[C@]3(O)[C@@H]2C1 [Example 24, methyl 1-{[(2S,4aS,6aS,6bR,8aR,12aS,14aS,14bR)-11-cyano-14a-hydroxy-2,4a,6a,6b,9,9,12a-heptamethyl-10,14-dioxo-1,2,3,4,4a,5,6,6a,6b,7,8,8a,9,10,12a,14,14a,14b-octadecahydropicen-2-yl]carbonyl}prolinate] | 16.6 nM |
| CC1(C)C(=O)C(C#N)=C[C@]2(C)C3=CC(=O)[C@]4(O)[C@@H]5C[C@@](C)(C(=O)NCC#N)CC[C@]5(C)CC[C@@]4(C)[C@]3(C)CC[C@@H]12 [Example 29, (2S,4aS,6aS,6bR,8aR,12aS,14aS,14bR)-11-cyano-N-(cyanomethyl)-14a-hydroxy-2,4a,6a,6b,9,9,12a-heptamethyl-10,14-dioxo-1,2,3,4,4a,5,6,6a,6b,7,8,8a,9,10,12a,14,14a,14b-octadecahydropicene-2-carboxamide] | 16.9 nM |
| CC1(C)C(=O)C(C#N)=C[C@]2(C)C3=CC(=O)[C@]4(O)[C@@H]5C[C@@](C)(C(=O)NC6CCCCC6)CC[C@]5(C)CC[C@@]4(C)[C@]3(C)CC[C@@H]12 [Example 21, (2S,4aS,6aS,6bR,8aR,12aS,14aS,14bR)-11-cyano-N-cyclohexyl-14a-hydroxy-2,4a,6a,6b,9,9,12a-heptamethyl-10,14-dioxo-1,2,3,4,4a,5,6,6a,6b,7,8,8a,9,10,12a,14,14a,14b-octadecahydropicene-2-carboxamide] | 9.7 nM |
